# Experimental data reported in PubChem BioAssay (NCI).
#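 96-well plates; 48 h exposure; 5 concentrations. Endpoints by linear interpolation between flanking doses. Not reached: highest tested concentration assigned. At the GI50, growth is halved. TGI marks complete inhibition of growth.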
# Key:
# Assay in all cases: NCI-60 cell line screen, 48 h
# SK-MEL-2 melanoma = test system: SK-MEL-2 melanoma
# HCC-2998 colon = test system: HCC-2998 colon
# OVCAR-8 ovarian = test system: OVCAR-8 ovarian
# RPMI-8226 leukemia = test system: RPMI-8226 leukemia
# CCRF-CEM leukemia = test system: CCRF-CEM leukemia
# UO-31 renal = test system: UO-31 renal
# PC-3 prostate = test system: PC-3 prostate
# OVCAR-4 ovarian = test system: OVCAR-4 ovarian
# UACC-62 melanoma = test system: UACC-62 melanoma
# MDA-MB-435 = test system: MDA-MB-435
# NCI-H522 lung = test system: NCI-H522 lung
# SK-MEL-5 melanoma = test system: SK-MEL-5 melanoma
# DU-145 prostate = test system: DU-145 prostate
# SF-295 CNS = test system: SF-295 CNS
# OVCAR-3 ovarian = test system: OVCAR-3 ovarian
# TK-10 renal = test system: TK-10 renal
# SF-539 CNS = test system: SF-539 CNS
# SN12C renal = test system: SN12C renal
# SW-620 colon = test system: SW-620 colon
# UACC-257 melanoma = test system: UACC-257 melanoma
# MCF7 breast = test system: MCF7 breast
# OVCAR-5 ovarian = test system: OVCAR-5 ovarian
# IGROV1 ovarian = test system: IGROV1 ovarian
# M14 melanoma = test system: M14 melanoma
# ACHN renal = test system: ACHN renal
# 786-0 renal = test system: 786-0 renal
# U251 CNS = test system: U251 CNS
# A549 NSCLC = test system: A549 NSCLC
# SK-MEL-28 melanoma = test system: SK-MEL-28 melanoma
# CAKI-1 renal = test system: CAKI-1 renal
# T-47D breast = test system: T-47D breast
# HOP-62 NSCLC = test system: HOP-62 NSCLC
# COLO 205 colon = test system: COLO 205 colon
# HCT-116 colon = test system: HCT-116 colon
# A498 renal = test system: A498 renal
# SK-OV-3 ovarian = test system: SK-OV-3 ovarian
# BT-549 breast = test system: BT-549 breast
# SNB-75 CNS = test system: SNB-75 CNS
# HCT-15 colon = test system: HCT-15 colon
# NCI-H226 lung = test system: NCI-H226 lung
# MOLT-4 leukemia = test system: MOLT-4 leukemia
# SNB-19 CNS = test system: SNB-19 CNS
# NCI/ADR-RES ovarian = test system: NCI/ADR-RES ovarian
# HS 578T breast = test system: HS 578T breast
# HT29 colon = test system: HT29 colon
# RXF 393 renal = test system: RXF 393 renal
# MDA-MB-231 breast = test system: MDA-MB-231 breast
# NCI-H460 lung = test system: NCI-H460 lung
# SF-268 CNS = test system: SF-268 CNS
# LOX IMVI melanoma = test system: LOX IMVI melanoma
# KM12 colon = test system: KM12 colon
# K-562 leukemia = test system: K-562 leukemia
# EKVX NSCLC = test system: EKVX NSCLC
# HL-60(TB) leukemia = test system: HL-60(TB) leukemia
# NCI-H23 lung = test system: NCI-H23 lung
# HOP-92 NSCLC = test system: HOP-92 NSCLC
# MALME-3M melanoma = test system: MALME-3M melanoma
structure (smiles),measurement,setting,value
N#Cc1cc2c(cc1Cl)SC(=Nc1ccccc1)N(S(=O)(=O)c1ccc(Cl)cc1)S2(=O)=O,GI50,SK-MEL-2 melanoma,3.61 µM
same,TGI,SK-MEL-2 melanoma,16.8 µM
same,GI50,HCC-2998 colon,17.8 µM
same,TGI,HCC-2998 colon,33 µM
same,GI50,OVCAR-8 ovarian,18 µM
same,TGI,OVCAR-8 ovarian,51 µM
same,GI50,RPMI-8226 leukemia,10.6 µM
same,TGI,RPMI-8226 leukemia,51.7 µM
same,GI50,CCRF-CEM leukemia,20.6 µM
same,TGI,CCRF-CEM leukemia,39.1 µM
same,GI50,UO-31 renal,9.84 µM
same,TGI,UO-31 renal,26.9 µM
same,GI50,PC-3 prostate,17.5 µM
same,TGI,PC-3 prostate,38.2 µM
same,GI50,OVCAR-4 ovarian,19 µM
same,TGI,OVCAR-4 ovarian,42.2 µM
same,GI50,UACC-62 melanoma,14.7 µM
same,TGI,UACC-62 melanoma,29 µM
same,GI50,MDA-MB-435,13 µM
same,TGI,MDA-MB-435,27.8 µM
same,GI50,NCI-H522 lung,3.29 µM
same,TGI,NCI-H522 lung,17.3 µM
same,GI50,SK-MEL-5 melanoma,13.4 µM
same,TGI,SK-MEL-5 melanoma,28.7 µM
same,GI50,DU-145 prostate,16.6 µM
same,TGI,DU-145 prostate,35.7 µM
same,GI50,SF-295 CNS,22.5 µM
same,TGI,SF-295 CNS,72.7 µM
same,GI50,OVCAR-3 ovarian,4.95 µM
same,TGI,OVCAR-3 ovarian,17.9 µM
same,GI50,TK-10 renal,0.656 µM
same,TGI,TK-10 renal,3.64 µM
same,GI50,SF-539 CNS,19.8 µM
same,TGI,SF-539 CNS,39.8 µM
same,GI50,SN12C renal,17.2 µM
same,TGI,SN12C renal,37.1 µM
same,GI50,SW-620 colon,17.4 µM
same,TGI,SW-620 colon,39.5 µM
same,GI50,UACC-257 melanoma,18.6 µM
same,TGI,UACC-257 melanoma,40.4 µM
same,GI50,MCF7 breast,14.8 µM
same,TGI,MCF7 breast,37.6 µM
same,GI50,OVCAR-5 ovarian,16.8 µM
same,TGI,OVCAR-5 ovarian,32.9 µM
same,GI50,IGROV1 ovarian,5.56 µM
same,TGI,IGROV1 ovarian,21.2 µM
same,GI50,M14 melanoma,10 µM
same,TGI,M14 melanoma,24.8 µM
same,GI50,ACHN renal,17.7 µM
same,TGI,ACHN renal,33.2 µM
same,GI50,786-0 renal,14.2 µM
same,TGI,786-0 renal,28.6 µM
same,GI50,U251 CNS,17.7 µM
same,TGI,U251 CNS,36.6 µM
same,GI50,A549 NSCLC,20.3 µM
same,TGI,A549 NSCLC,54.5 µM
same,GI50,SK-MEL-28 melanoma,17.1 µM
same,TGI,SK-MEL-28 melanoma,37.7 µM
same,GI50,CAKI-1 renal,12.3 µM
same,TGI,CAKI-1 renal,27.2 µM
same,GI50,T-47D breast,19.9 µM
same,TGI,T-47D breast,64.1 µM
same,GI50,HOP-62 NSCLC,13.5 µM
same,TGI,HOP-62 NSCLC,29.9 µM
same,GI50,COLO 205 colon,32 µM
same,TGI,COLO 205 colon,> 100 µM
same,GI50,HCT-116 colon,3.78 µM
same,TGI,HCT-116 colon,18 µM
same,GI50,A498 renal,16.4 µM
same,TGI,A498 renal,32.8 µM
same,GI50,SK-OV-3 ovarian,20 µM
same,TGI,SK-OV-3 ovarian,40.8 µM
same,GI50,BT-549 breast,13.4 µM
same,TGI,BT-549 breast,30.4 µM
same,GI50,SNB-75 CNS,18.9 µM
same,TGI,SNB-75 CNS,42.2 µM
same,GI50,HCT-15 colon,15.2 µM
same,TGI,HCT-15 colon,33.6 µM
same,GI50,NCI-H226 lung,17.7 µM
same,TGI,NCI-H226 lung,42.9 µM
same,GI50,MOLT-4 leukemia,28.7 µM
same,TGI,MOLT-4 leukemia,> 100 µM
same,GI50,SNB-19 CNS,35.5 µM
same,TGI,SNB-19 CNS,> 100 µM
same,GI50,NCI/ADR-RES ovarian,18 µM
same,TGI,NCI/ADR-RES ovarian,44.6 µM
same,GI50,HS 578T breast,21.6 µM
same,TGI,HS 578T breast,57.8 µM
same,GI50,HT29 colon,31 µM
same,TGI,HT29 colon,> 100 µM
same,GI50,RXF 393 renal,5.68 µM
same,TGI,RXF 393 renal,30.1 µM
same,GI50,MDA-MB-231 breast,14.5 µM
same,TGI,MDA-MB-231 breast,34.5 µM
same,GI50,NCI-H460 lung,20.8 µM
same,TGI,NCI-H460 lung,53.5 µM
same,GI50,SF-268 CNS,16.9 µM
same,TGI,SF-268 CNS,41.6 µM
same,GI50,LOX IMVI melanoma,10.8 µM
same,TGI,LOX IMVI melanoma,28.8 µM
same,GI50,KM12 colon,14 µM
same,TGI,KM12 colon,28.1 µM
same,GI50,K-562 leukemia,50.5 µM
same,TGI,K-562 leukemia,> 100 µM
same,GI50,EKVX NSCLC,16.9 µM
same,TGI,EKVX NSCLC,34.4 µM
same,GI50,HL-60(TB) leukemia,> 100 µM
same,TGI,HL-60(TB) leukemia,> 100 µM
CCCCC(CCCC)=NNC(=S)SC,TGI,SK-MEL-2 melanoma,> 100 µM
same,TGI,HCC-2998 colon,54.4 µM
same,TGI,OVCAR-8 ovarian,44.4 µM
same,TGI,UO-31 renal,> 100 µM
same,TGI,PC-3 prostate,> 100 µM
same,TGI,OVCAR-4 ovarian,66.3 µM
same,TGI,UACC-62 melanoma,57.8 µM
same,TGI,MDA-MB-435,47 µM
same,TGI,NCI-H522 lung,48.8 µM
same,TGI,SK-MEL-5 melanoma,39.3 µM
same,TGI,DU-145 prostate,> 100 µM
same,TGI,TK-10 renal,69.1 µM
same,TGI,SF-539 CNS,67 µM
same,TGI,SN12C renal,> 100 µM
same,TGI,SW-620 colon,> 100 µM
same,TGI,UACC-257 melanoma,75.7 µM
same,TGI,MCF7 breast,> 100 µM
same,TGI,OVCAR-5 ovarian,> 100 µM
same,TGI,M14 melanoma,44.3 µM
same,TGI,ACHN renal,> 100 µM
same,TGI,NCI-H23 lung,> 100 µM
same,TGI,786-0 renal,> 100 µM
same,TGI,U251 CNS,> 100 µM
same,TGI,A549 NSCLC,> 100 µM
same,TGI,HOP-92 NSCLC,> 100 µM
same,TGI,SK-MEL-28 melanoma,> 100 µM
same,TGI,T-47D breast,74.1 µM
same,TGI,HOP-62 NSCLC,> 100 µM
same,TGI,COLO 205 colon,> 100 µM
same,TGI,HCT-116 colon,38.6 µM
same,TGI,A498 renal,> 100 µM
same,TGI,SK-OV-3 ovarian,> 100 µM
same,TGI,BT-549 breast,> 100 µM
same,TGI,SNB-75 CNS,> 100 µM
same,TGI,HCT-15 colon,> 100 µM
same,TGI,NCI-H226 lung,57.6 µM
same,TGI,MALME-3M melanoma,37.4 µM
same,TGI,MOLT-4 leukemia,43.6 µM
same,TGI,SNB-19 CNS,> 100 µM
same,TGI,NCI/ADR-RES ovarian,> 100 µM
same,TGI,HS 578T breast,> 100 µM
same,TGI,HT29 colon,> 100 µM
same,TGI,RXF 393 renal,> 100 µM
same,TGI,MDA-MB-231 breast,> 100 µM
same,TGI,NCI-H460 lung,> 100 µM
same,TGI,SF-268 CNS,> 100 µM
same,TGI,LOX IMVI melanoma,> 100 µM
same,TGI,K-562 leukemia,> 100 µM
same,TGI,EKVX NSCLC,> 100 µM
same,TGI,HL-60(TB) leukemia,50.2 µM
